Measured values reported in article PMC3684770 (Free Radical Biology & Medicine, 2013).
pEC50, pIC50: −log10 of the molar value. Counter-ions that a name gives are not always drawn. Like-named read-outs stand apart in the source and are kept apart here.

Tests used:
[1] = test system: NSC34 cells; test: NSC34 oxidative stress assay (serum withdrawal, DCF); conditions: for NSC34 oxidative stress assay Max reduction: maximum % inhibition of DCF signal, negative = prooxidant; for NSC34 oxidative stress assay Toxic dose: minimum dose at which toxicity was observed; for Emax: Mus musculus, NSC-34, 24 h, read-out: NSC34 oxidative stress assay Max reduction
Procedure: (§1) Media were then replaced with serum-free, phenol-free media for 5 h.

[2] = test system: 1321N1 astrocyte cell line; test: 1321N1 oxidative stress assay (serum withdrawal, DCF); conditions: for 1321N1 oxidative stress assay Max reduction: maximum % inhibition of DCF signal; for 1321N1 oxidative stress assay Toxic dose: minimum dose at which toxicity was observed; for Emax: 1321-N1, 24 h, read-out: 1321N1 oxidative stress assay Max reduction
Procedure: as §1

[3] = test system: Nrf2-ARE pathway; test: ARE reporter assay in CHO 4xARE-TK-GFP cells (Spectrum library hits); conditions: for maximal fold induction: CHO, read-out: Fold GFP induction
Procedure: The Z′ score was calculated as follows Z′=1−(3SD^++3SD^−)/(Ave^+–Ave^−) where SD^+ = standard deviation of positive control wells; SD^− = standard deviation of negative control wells; Ave^+ = average fluorescence reading of positive control wells; Ave^− = average fluorescence reading of negative control wells.
Media was removed by hand and replaced (1 compound/well) with the Spectrum library diluted to 10 μM in 0.1% DMSO using a Q-bot liquid handling system (Genetix, New Milton, UK). […] The TK-GFP CHO ARE cell line was screened twice in a single point assay and the control TK-GFP CHO cell line was screened once to eliminate false positives.
The compounds were applied in triplicate to confluent cells in 96 well plates in serum free medium for 24 hours and the induction of GFP measured in a fluorescence plate reader.
In order to screen the Spectrum collection of 2000 molecules the reporter assay was optimised in […]. To assess the suitability of the assay for library screening, a Z’ score calculation was performed by treating alternate wells with vehicle (0.1% DMSO) and 10 µM Ebselen as a positive control (see calculation in Methods). […] The library was subsequently screened at a single point concentration of 10µM for every compound. Drug library dilutions and plating were performed with a Q-BOT liquid handling system and both the 4xARE-TK-GFP reporter cell line and TK-GFP control cell line were tested for their response to the compounds. Hits were identified as having data points more than three standard deviations above the background level, which was the average value of 24 wells treated with vehicle (0.1% DMSO) only. Hit compounds were checked to see if they generated a response in the control cell line, for example by non-specific activation of transcription or autofluorescence. […] The library screen was repeated once in the 4xARE –TK-CHO cell line and compounds classed as hits in both screens were taken forward for further assessment.

[4] = test system: C6 astrocyte cell line; test: C6 oxidative stress assay (serum withdrawal, DCF); conditions: for C6 oxidative stress assay Max reduction: maximum % inhibition of DCF signal; for C6 oxidative stress assay Toxic dose: minimum dose at which toxicity was observed; for pIC50: read-out: C6 oxidative stress assay IC50; for Emax: 24 h, read-out: C6 oxidative stress assay Max reduction
Procedure: as §1

[5] = test system: NSC34 cells
Procedure: as §1

[6] = test system: C6 astrocyte cell line
Procedure: as §1

[7] = test system: 1321N1 astrocyte cell line
Procedure: as §1

[8] = read-out: 1321N1 oxidative stress assay IC50, 24-h preconditioning, 6-h serum withdrawal, DCF fluorescence
[9] = CHO ARE reporter, 7-point concentration response
[10] = average fold over baseline at the maximal response, CHO cells, 24 h
[11] = lowest dose at which a reduction in GFP fluorescence was observed
[12] = 24-h preconditioning, 6-h serum withdrawal, DCF fluorescence
[13] = Homo sapiens, 1321-N1, read-out: 1321N1 oxidative stress assay IC50

Compound | NSC34 oxidative stress assay Toxic dose [1] | 1321N1 oxidative stress assay Toxic dose [2] | Toxic dose [3, 11] | C6 oxidative stress assay Toxic dose [4] | Emax [1] [%] | Emax ([2]; Homo sapiens) [%] | pIC50 [2, 13] | pEC50 ([3]; Cricetulus griseus) | Emax ([4]; Rattus norvegicus, Astrocyte) [%] | pIC50 ([4]; Rattus norvegicus, Astrocyte) | also measured
CC(=O)O[C@@H]1C[C@H]2C(C)(C)C(=O)C=C[C@]2(C)[C@H]2CC[C@]3(C)C(=CC(=O)O[C@H]3c3ccoc3)[C@@]21C [Deoxygedunin] | 10 µM | 10 µM | 30 µM | none | – | – | – | – | – | – | NSC34 oxidative stress assay Max reduction [1]: 7%; 1321N1 oxidative stress assay Max reduction [2]: 25%; pIC50 [2, 8]: 5.85; pEC50 [3, 9]: 5.94; Fold GFP induction [3, 10]: 1.82 fold; C6 oxidative stress assay Max reduction [4]: 61%; pIC50 [4, 12]: 5.66
O=c1c2ccccc2[se]n1-c1ccccc1 [Ebselen, reference compound] | none | none | 100 µM | none | -80 | 20 | 6.71 | 5.40 | 30 | – | EC90 ([3]; Cricetulus griseus, read-out: approximate EC90): ~10 µM
O=C(CC[N+](=O)[O-])OC[C@H]1O[C@@H](O)[C@H](OC(=O)CC[N+](=O)[O-])[C@@H](OC(=O)CC[N+](=O)[O-])[C@@H]1OC(=O)CC[N+](=O)[O-] [Endecaphyllin X] | 10 µM | none | None | none | – | – | – | – | – | – | NSC34 oxidative stress assay Max reduction [1]: 0%; 1321N1 oxidative stress assay Max reduction [2]: 56%; pEC50 [3, 9]: 4.73; Fold GFP induction [3, 10]: 2.15 fold; C6 oxidative stress assay Max reduction [4]: 40%; pIC50 [4, 12]: 5.50
C[C@@H]1C(=O)O[C@H]2[C@H]1CC[C@@]1(C)C=CC(=O)[C@@]3(C)O[C@@]213 [Epoxy(4,5α)-4,5-dihydrosantonin] | – | – | – | – | – | – | – | – | – | – | NSC34 oxidative stress assay Toxic dose [5]: 3 µM; NSC34 oxidative stress assay Max reduction [1]: 0%; 1321N1 oxidative stress assay Max reduction [2]: 63%; pIC50 [2, 8]: 6.18; Fold GFP induction [3]: 2.91 fold; Toxic dose [3]: 100 µM; pEC50 [3, 9]: 4.74; C6 oxidative stress assay Toxic dose [6]: None; 1321N1 oxidative stress assay Toxic dose [7]: None; C6 oxidative stress assay Max reduction [4]: 62%; pIC50 [4, 12]: 5.67
C=C(CC)C(=O)c1ccc(OCC(=O)O)c(Cl)c1Cl [Ethacrynic acid, reference compound] | 10 µM | – | 100 µM | – | -30 | 25 | 5.52 | 4.85 | 31 | 5.52 | –
CC(=O)O[C@H]1CCC2(C)C3=C(CCC2C1(C)C)[C@@]1(C)CC[C@@H](C(C)CCC=C(C)C)[C@]1(C)CC3 (stereo partly drawn) [Euphol acetate] | none | none | 100 µM | none | – | – | – | – | – | – | NSC34 oxidative stress assay Max reduction [1]: -43%; 1321N1 oxidative stress assay Max reduction [2]: 38%; pIC50 [2, 8]: 4.74; Fold GFP induction [3, 10]: 2.20 fold; C6 oxidative stress assay Max reduction [4]: 0%
O=C(/C=C/c1ccc(O)cc1)c1ccc(O)cc1O [Isoliquiritigenin] | 1 µM | none | 30 µM | none | -6 | 50 | 5.75 | 5.60 | 46 | 4.55 | –
CC(COc1ccccc1)NC(C)C(O)c1ccc(O)cc1 (stereo not drawn) [Isoxsuprine hydrochloride, reference compound] | none | none | 100 µM | none | -16 | – | – | – | 40 | 4.64 | –
OC[C@H]1O[C@@H](n2cnc3c(NCc4ccco4)ncnc32)[C@H](O)[C@@H]1O [Kinetin riboside] | 3 µM | 3 µM | 30 µM | 10 µM | 0 | 25 | 6.61 | – | 40 | 5.42 | –
CCCCCc1c2c(cc(O)c1C(=O)O)OC(=O)c1c(cc(OC)cc1C(=O)CCCC)O2 [Lobaric acid] | none | none | 100 µM | none | -26 | 0 | – | 4.77 | 9 | 5.50 | –
C=C1C(=O)O[C@H]2[C@H]1CC/C(C)=C/CC[C@@]1(C)O[C@@H]21 [Parthenolide] | 1 µM | None | 100 µM | None | 0 | 47 | 4.55 | < 4.00 | 81 | 5.51 | maximal fold induction ([3]; Cricetulus griseus, 24 h): 2.77
CC(C)N(C(=O)CCl)c1ccccc1 [Propachlor] | 10 µM | 10 µM | 100 µM | 10 µM | 0 | 50 | 6.08 | 5.83 | 74 | 6.19 | Fold GFP induction [3, 10]: 3.25 fold
C=C(C)/C=C1/C=CC(=O)C(C)=C1 [Retusoquinone] | none | none | 100 µM | none | -25 | 0 | – | – | 15 | 5.69 | –
COc1ccc2c(c1)OC/C(=C/c1ccc(OC)c(OC)c1)C2=O [Sappanone A trimethyl ether] | none | none | 100 µM | none | -60 | 40 | 6.55 | 5.46 | 27 | – | maximal fold induction ([3]; Cricetulus griseus, 24 h): 1.99
O=C1C=C2C=C[C@@H]3C[C@@]2(O1)[C@H]1CCCCN31 [Securinine] | None | None | 30 µM | None | 20 | 55 | 4.74 | 5.67 | 67 | 6.19 | maximal fold induction ([3]; Cricetulus griseus, 24 h): 3
COC(=O)[C@H](O)[C@H]1C(C)(C)[C@H](OC(C)=O)[C@@H]2CC3=C4CC(=O)O[C@@H](c5ccoc5)[C@]4(C)CC[C@@H]3[C@@]1(C)C2=O [Swietenolide 3 acetate] | 0.3 µM | none | 100 µM | none | 0 | 60 | – | 5.46 | 50 | 5.37 | maximal fold induction ([3]; Cricetulus griseus, 24 h): 2.82
CC1=CC(=O)C(C(C)C)=CC1=O [Thymoquinone] | None | None | 30 µM | None | 0 | 25 | 4.96 | – | 32 | 7.85 | –
Methyl-7-deshydroxypyrogallin-4-carboxylate | 0.3 µM | none | 100 µM | none | – | – | – | – | – | – | NSC34 oxidative stress assay Max reduction [1]: -23%; 1321N1 oxidative stress assay Max reduction [2]: 45%; pEC50 [3, 9]: < 4.00; Fold GFP induction [3, 10]: 2.83 fold; C6 oxidative stress assay Max reduction [4]: 70%; pIC50 [4, 12]: 5.53
